Patent US9376382B2, “N-substituted isopropyldimethyl azulene sulfonamide derivatives, and preparation method and use thereof” (Sichuan Guokang Pharmaceutical Co., Ltd., priority 2011, dated 2016)

Columns and labels:
[1] = High-temperature test (60° C.), stability study; format: physicochemical; conditions: open-stored; for Appearance Day 5: Day 5, cell wraps; for Appearance Day 5 / Appearance Day 10: first line given; for Appearance Day 10: Day 10, cell wraps;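 on all read-outs here: samples kept uncovered in dishes at 60 °C for up to 10 days and examined on Day 5 and Day 10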
Method: The test samples were open-stored in culture dishes at 60° C. for 10 days, and taken and detected on Day 5 and Day 10. • The characteristics, especially colour change were observed. • Melting points were measured by automatic melting point apparatus. • By self-reflection, TLC is used to observe whether the spot numbers were increased after 5 days and 10 days.

[2] = High humidity test (25° C., relative humidity 90% ± 5%), stability study; format: physicochemical; conditions: RH 90% ± 5%; for Appearance Day 0: Day 0, cell wraps; for Appearance Day 0 / Appearance Day 5 / Appearance Day 10: first line given; for Appearance Day 5: Day 5, cell wraps; for Appearance Day 10: Day 10, cell wraps;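 on all read-outs here: samples kept uncovered in sealed humidity desiccators, appearance judged mainly by colour change, melting point on an automatic apparatus, TLC checked for extra spots versus start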
Method: The test samples were open-stored in closed constant humidity desiccators under the condition of 25° C. and relative humidity of 90%+5% for 10 days, and taken and detected on Day 5 and Day 10. Meanwhile, each sample was accurately weighed before and after test.
The characteristics, especially colour change was observed.
Melting points were measured by an automatic melting point apparatus.
By self-reflection, TLC is used to observe whether the spot numbers were increased after 5 days and 10 days.

[3] = Stability studies (light, humidity, heat), overall comparison; conditions: summary of high-temperature, high humidity and intense light tests
[4] = Intense light irradiation test (4500LX ± 500LX), stability study; format: physicochemical; conditions: for Appearance Day 0: Day 0, cell wraps; for Appearance Day 0 / Appearance Day 5 / Appearance Day 10: first line given; for Appearance Day 5: Day 5, cell wraps; for Appearance Day 10: Day 10, cell wraps
Method: The test samples were open-stored in “adjustable light boxes” under the conditions of illumination of 4500LX±500LX for 10 days, and taken and detected on Day 5 and Day 10 with regards to dry items. • The characteristics, especially colour change was observed. • Melting points were measured by an automatic melting point apparatus. • By self-reflection, TLC is used to observe whether the spot numbers were increased after 5 days and 10 days.

Row | Compound | melting point | Melting point Day 0 [1] | Spot numbers on TLC Day 0 [1] | Melting point Day 5 [1] | Spot numbers on TLC Day 5 [1] | Appearance Day 5 [1] | Melting point Day 10 [1] | Spot numbers on TLC Day 10 [1] | Appearance Day 10 [1] | Melting point Day 0 [2] | Spot numbers on TLC Day 0 [2] | hygroscopic rate (%) Day 0 [2] | Appearance Day 0 [2] | Melting point Day 5 [2] | Spot numbers on TLC Day 5 [2] | hygroscopic rate (%) Day 5 [2] | Appearance Day 5 [2] | Melting point Day 10 [2] | Spot numbers on TLC Day 10 [2] | Appearance Day 10 [2] | also measured
1 | Cc1cc(S(=O)(=O)NCC(C)C)c2c(C)ccc(C(C)C)cc1-2 [4e, N-isobutyl-3,8-dimethyl-5-isopropyl-1-azulene sulfonamide] | 117 to 118 °C | 117.0-118.0 °C | 1 | 117.5-118.5 °C | 1 | purple | 117.5-118.5 °C | 1 | purple | 117.0-118.0 °C | 1 | 1.07% | purple | 116.5-118.5 °C | 1 | 1.51% | purple | 116.5-118.5 °C | 1 | purple | light, humidity and heat stability in words [3]: better light, humidity and heat stability than azulene sulfonate sodium; Melting point Day 0 [4]: 117.0-118.0 °C; Spot numbers on TLC Day 0 [4]: 1; Appearance Day 0 [4]: purple; Melting point Day 5 [4]: 117.5-118.0 °C; Spot numbers on TLC Day 5 [4]: 1; Appearance Day 5 [4]: purple; Melting point Day 10 [4]: 115.0-117.5 °C; Spot numbers on TLC Day 10 [4]: 2; Appearance Day 10 [4]: purple
2 | CCCNS(=O)(=O)c1cc(C)c2cc(C(C)C)ccc(C)c1-2 [4f, N-propyl-3,8-dimethyl-5-isopropyl-1-azulene sulfonamide] | 60 to 62 °C | 59.5-62.5 °C | 1 | 60.0-62.0 °C | 1 | purple | 60.0-62.0 °C | 1 | purple | 59.5-62.5 °C | 1 | 1.13% | purple | 59.5-63.0 °C | 1 | 1.28% | purple | 59.5-63.0 °C | 1 | purple | light, humidity and heat stability in words [3]: better light, humidity and heat stability than azulene sulfonate sodium; Melting point Day 0 [4]: 59.5-62.5 °C; Spot numbers on TLC Day 0 [4]: 1; Appearance Day 0 [4]: purple; Melting point Day 5 [4]: 58.5-62.0 °C; Spot numbers on TLC Day 5 [4]: 1; Appearance Day 5 [4]: purple; Melting point Day 10 [4]: 57.5-61.5 °C; Spot numbers on TLC Day 10 [4]: 2; Appearance Day 10 [4]: purple
3 | Cc1ccc(NS(=O)(=O)c2cc(C)c3cc(C(C)C)ccc(C)c2-3)cc1 [4g, N-(4-methylphenyl)-3,8-dimethyl-5-isopropyl-1-azulene sulfonamide] | 146 to 148 °C | 146.0-148.5 °C | 1 | 146.0-148.0 °C | 1 | purple | 145.5-147.5 °C | 1 | purple | 146.0-148.5 °C | 1 | 1.56% | purple | 145.5-148.5 °C | 1 | 2.01% | purple | 145.5-148.5 °C | 1 | purple | light, humidity and heat stability in words [3]: better light, humidity and heat stability than azulene sulfonate sodium; Melting point Day 0 [4]: 146.0-148.5 °C; Spot numbers on TLC Day 0 [4]: 1; Appearance Day 0 [4]: purple; Melting point Day 5 [4]: 145.0-147.5 °C; Spot numbers on TLC Day 5 [4]: 1; Appearance Day 5 [4]: purple; Melting point Day 10 [4]: 143.5-147.5 °C; Spot numbers on TLC Day 10 [4]: 2; Appearance Day 10 [4]: purple
4 | CCNS(=O)(=O)c1cc(C)c2cc(C(C)C)ccc(C)c1-2 [4h, N-ethyl-3,8-dimethyl-5-isopropyl-1-azulene sulfonamide] | 96 to 98 °C | 123.5-125.5 °C | 1 | 123.5-125.5 °C | 1 | blue | 124.5-125.0 °C | 1 | blue | 123.5-125.5 °C | 1 | 1.14% | blue | 123.5-125.5 °C | 1 | 2.11% | blue | 123.5-125.5 °C | 1 | blue | light, humidity and heat stability in words [3]: better light, humidity and heat stability than azulene sulfonate sodium; Melting point Day 0 [4]: 123.5-125.5 °C; Spot numbers on TLC Day 0 [4]: 1; Appearance Day 0 [4]: blue; Melting point Day 5 [4]: 122.0-125.5 °C; Spot numbers on TLC Day 5 [4]: 1; Appearance Day 5 [4]: blue; Melting point Day 10 [4]: 121.0-126.0 °C; Spot numbers on TLC Day 10 [4]: 2; Appearance Day 10 [4]: blue
5 | Cc1cc(S(=O)(=O)NCc2ccccc2)c2c(C)ccc(C(C)C)cc1-2 [4j, N-benzyl-3,8-dimethyl-5-isopropyl-1-azulene sulfonamide] | 124 to 126 °C | 124.0-125.5 °C | 1 | 124.0-125.5 °C | 1 | dark blue | 124.0-125.5 °C | 1 | blue | 124.0-126.0 °C | 1 | 1.24% | dark | 124.0-126.5 °C | 1 | 2.08% | dark | 124.5-126.5 °C | 1 | blue | light, humidity and heat stability in words [3]: better light, humidity and heat stability than azulene sulfonate sodium; Melting point Day 0 [4]: 124.0-125.5 °C; Spot numbers on TLC Day 0 [4]: 1; Appearance Day 0 [4]: dark blue; Melting point Day 5 [4]: 123.5-125.5 °C; Spot numbers on TLC Day 5 [4]: 1; Appearance Day 5 [4]: dark; Spot numbers on TLC Day 10 [4]: 2; Appearance Day 10 [4]: blue
